Experimental data as given in the NIST ThermoML archive (doi:10.1016/j.tca.2014.02.019).
± gives the expanded uncertainty stated by the source.

Assay: xn = mol fraction of the nth substance listed
Conditions: 101 kPa, Liquid; for mass density: Vibrating tube method; for viscosity: Falling or rolling sphere viscometry

With `CCOS(=O)(=O)[O-].CC[N+]1(C)CCCCC1` [1-ethyl-1-methylpiperidinium ethyl sulfate] + O the mass density (318.15 K, x1 = 1) was 1168.85 ± 2.6 kg/m3, the viscosity (323.15 K, x1 = 0.106) was 3.415 ± 0.55 mPa·s and the viscosity (323.15 K, x1 = 0.1407) was 4.818 ± 0.77 mPa·s. The viscosity (323.15 K, x1 = 0.2161) was 8.774 ± 1.4 mPa·s, the viscosity (323.15 K, x1 = 0.2643) was 11.77 ± 1.9 mPa·s and the viscosity (323.15 K, x1 = 0.3605) was 18.73 ± 3 mPa·s. The viscosity (323.15 K, x1 = 0.4662) was 30.42 ± 4.9 mPa·s, the viscosity (323.15 K, x1 = 0.5583) was 45.67 ± 7.3 mPa·s and the viscosity (323.15 K, x1 = 0.6591) was 70.97 ± 11 mPa·s. The viscosity (323.15 K, x1 = 0.7296) was 92.8 ± 15 mPa·s, the viscosity (323.15 K, x1 = 0.8133) was 130.8 ± 21 mPa·s and the viscosity (323.15 K, x1 = 1) was 285.8 ± 48 mPa·s. It also gave a mass density (323.15 K, x1 = 0.106) of 1096.14 ± 0.29 kg/m3, a mass density (323.15 K, x1 = 0.1407) of 1110.96 ± 0.24 kg/m3 and a mass density (323.15 K, x1 = 0.2161) of 1130.66 ± 0.28 kg/m3. The mass density (323.15 K, x1 = 0.2643) was 1138.31 ± 0.32 kg/m3, the mass density (323.15 K, x1 = 0.3605) was 1147.97 ± 0.44 kg/m3 and the mass density (323.15 K, x1 = 0.4662) was 1154.35 ± 0.65 kg/m3. For the same compound, the mass density (323.15 K, x1 = 0.5583) was 1158.04 ± 0.89 kg/m3, the mass density (323.15 K, x1 = 0.6591) was 1160.83 ± 1.2 kg/m3 and the mass density (323.15 K, x1 = 0.7296) was 1162.25 ± 1.4 kg/m3. For the same compound, the mass density (323.15 K, x1 = 0.8133) was 1163.48 ± 1.8 kg/m3, the mass density (323.15 K, x1 = 1) was 1165.73 ± 2.6 kg/m3 and the viscosity (328.15 K, x1 = 0.106) was 3.006 ± 0.48 mPa·s. The viscosity (328.15 K, x1 = 0.1407) was 4.206 ± 0.67 mPa·s, the viscosity (328.15 K, x1 = 0.2161) was 7.538 ± 1.2 mPa·s and the viscosity (328.15 K, x1 = 0.2643) was 10.13 ± 1.6 mPa·s. The viscosity (328.15 K, x1 = 0.3605) was 15.77 ± 2.5 mPa·s, the viscosity (328.15 K, x1 = 0.4662) was 25.37 ± 4.1 mPa·s and the viscosity (328.15 K, x1 = 0.5583) was 37.45 ± 6 mPa·s. It also gave a viscosity (328.15 K, x1 = 0.6591) of 56.75 ± 9.1 mPa·s, a viscosity (328.15 K, x1 = 0.7296) of 73.46 ± 12 mPa·s and a viscosity (328.15 K, x1 = 0.8133) of 101.6 ± 16 mPa·s. It also gave a viscosity (328.15 K, x1 = 1) of 212.6 ± 35 mPa·s, a mass density (328.15 K, x1 = 0.106) of 1092.63 ± 0.29 kg/m3 and a mass density (328.15 K, x1 = 0.1407) of 1107.4 ± 0.24 kg/m3. The mass density (328.15 K, x1 = 0.2161) was 1127.13 ± 0.28 kg/m3, the mass density (328.15 K, x1 = 0.2643) was 1134.87 ± 0.32 kg/m3 and the mass density (328.15 K, x1 = 0.3605) was 1144.63 ± 0.44 kg/m3. It also gave a mass density (328.15 K, x1 = 0.4662) of 1151.12 ± 0.65 kg/m3, a mass density (328.15 K, x1 = 0.5583) of 1154.87 ± 0.88 kg/m3 and a mass density (328.15 K, x1 = 0.6591) of 1157.71 ± 1.2 kg/m3. The mass density (328.15 K, x1 = 0.7296) was 1159.16 ± 1.4 kg/m3, the mass density (328.15 K, x1 = 0.8133) was 1160.43 ± 1.8 kg/m3 and the mass density (328.15 K, x1 = 1) was 1162.62 ± 2.6 kg/m3. For the same compound, the viscosity (333.15 K, x1 = 0.106) was 2.667 ± 0.43 mPa·s, the viscosity (333.15 K, x1 = 0.1407) was 3.7 ± 0.59 mPa·s and the viscosity (333.15 K, x1 = 0.2161) was 6.103 ± 0.98 mPa·s. It also gave a viscosity (333.15 K, x1 = 0.2643) of 8.625 ± 1.4 mPa·s, a viscosity (333.15 K, x1 = 0.3605) of 13.48 ± 2.2 mPa·s and a viscosity (333.15 K, x1 = 0.4662) of 21.32 ± 3.4 mPa·s. For the same compound, the viscosity (333.15 K, x1 = 0.6591) was 44.89 ± 7.2 mPa·s, the viscosity (333.15 K, x1 = 0.7296) was 58.82 ± 9.4 mPa·s and the viscosity (333.15 K, x1 = 0.8133) was 80.45 ± 13 mPa·s. For the same compound, the viscosity (333.15 K, x1 = 1) was 162.5 ± 27 mPa·s, the mass density (333.15 K, x1 = 0.106) was 1089.08 ± 0.29 kg/m3 and the mass density (333.15 K, x1 = 0.1407) was 1103.8 ± 0.24 kg/m3. It also gave a mass density (333.15 K, x1 = 0.2161) of 1123.62 ± 0.28 kg/m3, a mass density (333.15 K, x1 = 0.2643) of 1131.4 ± 0.32 kg/m3 and a mass density (333.15 K, x1 = 0.3605) of 1141.31 ± 0.44 kg/m3. For the same compound, the mass density (333.15 K, x1 = 0.4662) was 1147.88 ± 0.64 kg/m3, the mass density (333.15 K, x1 = 0.5583) was 1151.7 ± 0.88 kg/m3 and the mass density (333.15 K, x1 = 0.6591) was 1154.59 ± 1.2 kg/m3. It also gave a mass density (333.15 K, x1 = 0.7296) of 1156.08 ± 1.4 kg/m3, a mass density (333.15 K, x1 = 0.8133) of 1157.38 ± 1.7 kg/m3 and a mass density (333.15 K, x1 = 1) of 1159.54 ± 2.6 kg/m3. The viscosity (338.15 K, x1 = 0.106) was 2.383 ± 0.38 mPa·s, the viscosity (338.15 K, x1 = 0.1407) was 3.278 ± 0.53 mPa·s and the viscosity (338.15 K, x1 = 0.2161) was 4.937 ± 0.79 mPa·s. It also gave a viscosity (338.15 K, x1 = 0.2643) of 7.493 ± 1.2 mPa·s, a viscosity (338.15 K, x1 = 0.3605) of 11.57 ± 1.9 mPa·s and a viscosity (338.15 K, x1 = 0.4662) of 18.19 ± 2.9 mPa·s. The viscosity (338.15 K, x1 = 0.5583) was 26.14 ± 4.2 mPa·s, the viscosity (338.15 K, x1 = 0.6591) was 37.58 ± 6 mPa·s and the viscosity (338.15 K, x1 = 0.7296) was 47.7 ± 7.7 mPa·s. It also gave a viscosity (338.15 K, x1 = 0.8133) of 64.86 ± 10 mPa·s, a viscosity (338.15 K, x1 = 1) of 126.1 ± 21 mPa·s and a mass density (338.15 K, x1 = 0.106) of 1085.5 ± 0.29 kg/m3. The mass density (338.15 K, x1 = 0.1407) was 1100.19 ± 0.24 kg/m3, the mass density (338.15 K, x1 = 0.2161) was 1120.07 ± 0.28 kg/m3 and the mass density (338.15 K, x1 = 0.2643) was 1127.93 ± 0.32 kg/m3. The mass density (338.15 K, x1 = 0.3605) was 1137.96 ± 0.43 kg/m3, the mass density (338.15 K, x1 = 0.4662) was 1144.64 ± 0.64 kg/m3 and the mass density (338.15 K, x1 = 0.5583) was 1148.52 ± 0.87 kg/m3. The mass density (338.15 K, x1 = 0.6591) was 1151.47 ± 1.2 kg/m3, the mass density (338.15 K, x1 = 0.7296) was 1152.99 ± 1.4 kg/m3 and the mass density (338.15 K, x1 = 0.8133) was 1154.33 ± 1.7 kg/m3. It also gave a mass density (338.15 K, x1 = 1) of 1156.56 ± 2.6 kg/m3, a viscosity (343.15 K, x1 = 0.106) of 2.143 ± 0.34 mPa·s and a viscosity (343.15 K, x1 = 0.1407) of 2.926 ± 0.47 mPa·s. The viscosity (343.15 K, x1 = 0.2161) was 4.099 ± 0.66 mPa·s, the viscosity (343.15 K, x1 = 0.2643) was 6.755 ± 1.1 mPa·s and the viscosity (343.15 K, x1 = 0.3605) was 10.06 ± 1.6 mPa·s. The viscosity (343.15 K, x1 = 0.4662) was 15.53 ± 2.5 mPa·s, the viscosity (343.15 K, x1 = 0.5583) was 22.23 ± 3.6 mPa·s and the viscosity (343.15 K, x1 = 0.6591) was 32.44 ± 5.2 mPa·s. It also gave a viscosity (343.15 K, x1 = 0.7296) of 40.29 ± 6.5 mPa·s, a viscosity (343.15 K, x1 = 0.8133) of 53 ± 8.5 mPa·s and a viscosity (343.15 K, x1 = 1) of 99.87 ± 16 mPa·s. The mass density (343.15 K, x1 = 0.106) was 1081.88 ± 0.29 kg/m3, the mass density (343.15 K, x1 = 0.1407) was 1096.54 ± 0.24 kg/m3 and the mass density (343.15 K, x1 = 0.2161) was 1116.49 ± 0.28 kg/m3. It also gave a mass density (343.15 K, x1 = 0.2643) of 1124.44 ± 0.32 kg/m3, a mass density (343.15 K, x1 = 0.3605) of 1134.62 ± 0.43 kg/m3 and a mass density (343.15 K, x1 = 0.4662) of 1141.4 ± 0.63 kg/m3. For the same compound, the mass density (343.15 K, x1 = 0.5583) was 1145.35 ± 0.87 kg/m3, the mass density (343.15 K, x1 = 0.6591) was 1148.36 ± 1.2 kg/m3 and the mass density (343.15 K, x1 = 0.7296) was 1149.91 ± 1.4 kg/m3. For the same compound, the mass density (343.15 K, x1 = 0.8133) was 1151.31 ± 1.7 kg/m3 and the mass density (343.15 K, x1 = 1) was 1153.58 ± 2.6 kg/m3.
